According to patent US9890357B2, “Method for inducing differentiation of human pluripotent stem cells into intermediate mesoderm cells” (Kyoto University, priority 2011, dated 2018):

What was measured:
[1] = system: OSR1-GFP reporter iPS cells; assay: Induction of differentiation into intermediate mesoderm cells (novel induction methods 2 and 3), flow cytometry using OSR1 (GFP) expression; time course; type: cell-based, human; conditions: for time at which growth of OSR1 positive cells had plateau after the medium change: cell numbers measured 3, 5, 8 or 12 days after change to medium with 1 micromolar retinoic acid derivative
Experimental: (§1) Human iPS cells (201B7) provided by Dr. Yamanaka at Kyoto University were cultured by the known method (Takahashi, K. et al., Cell 131: 861-872). Subsequently, a GFP-PGK-Neo cassette was inserted into a site downstream of the OSR1 initiation codon of a BAC clone (RP11-458J18) (BACPAC RESOURCES) using pRed/ET (Gene Bridges GmbH), so as to prepare a OSR1-GFP BAC transgene. The resulting modified BAC clone was introduced into the human iPS cell and the OSR1-GFP reporter iPS cell line expressing GFP in conjunction with the expression of endogenous OSR1 was established.
(§2) The above OSR1-GFP reporter iPS cells were cultured to confluence on a 10-cm dish using SNL cells as feeder cells (McMahon, A. P. and Bradley, A., 1990, Cell 62; 1073-1085). A CTK solution was added to the cells for dissociation, the feeder cells were removed, and the iPS cells were dispersed into single cells with the addition of Accutase.
Subsequently, the iPS cells were suspended in a DMEM/F12 medium containing Glutamax, 2% FBS, and PenStrep, and a combination of (1) 10 micromolar Y-27632 (ROCK inhibitor), 3 micromolar CHIR99021, and 1 micromolar AM580 or (2) 10 micromolar Y-27632 (ROCK inhibitor), 3 micromolar CHIR99021, and 1 micromolar TTNPB was added thereto. Subsequently, the cell suspension was transferred to a dish coated with 0.1% gelatin, and culture was conducted for 2 days.
Thereafter, the medium was removed, the culture product was washed in PBS, and the iPS cells were then cultured for an additional 8 days (novel induction method 2) or 3 days (novel induction method 3) in a medium prepared by adding 1 micromolar AM580 or 1 micromolar TTNPB to a DMEM/F12 medium containing 2-mercaptoethanol, Glutamax, 10% KOCKOUT SR, 0.1 mM MEM NEAA, and PenStrep. During culture, the medium was exchanged with fresh medium once every 3 days in the case of the novel induction method 2.
After the cell culture had been conducted for 8 or 3 days, the cells were analyzed by flow cytometry (FACS) using OSR1 expression as an indicator.
Next, the length of time from medium change was studied. Briefly, number of OSR1 positive cells and total cells were measured at 3 days (novel induction method 3), 5 days, 8 days (novel induction method 2) or 12 days after the medium was changed to a medium prepared by adding 1 micromolar AM580 or 1 micromolar TTNPB to a DMEM/F12 medium containing 2-mercaptoethanol, Glutamax, 10% KOCKOUT SR, 0.1 mM MEM NEAA, and PenStrep (FIG. 4). The growth of OSR1 positive cells had plateau at 8 day after the medium change.

[2] = system: iPS cell clones (201B6, 253G1, 263G4 and 585A1) and ES cell clone (KhES1, KhES3 and H9); assay: Level of OSR1 expression after differentiation from each iPS cell clone or ES clone (novel induction method 3); type: cell-based, human
From the text: White bar indicates the result using AM580. Black bar indicates the result using TTNPB. Grey bar indicate the result of conventional method without AM580 and TTNPB.

[3] = Cytotoxicity compared with ATRA; type: cell-based; conditions: stated as effect of the invention, no test described
[4] = system: intranuclear receptor of retinoic acid (RAR); assay: Activity through retinoic acid pathway compared with ATRA; conditions: stated as effect of the invention, no test described
[5] = system: OSR1-GFP reporter iPS cells; assay: Induction of differentiation into intermediate mesoderm cells (novel induction method 1), flow cytometry using OSR1 (GFP) expression; type: cell-based, human; conditions: novel induction method 1: 2 days 3 micromolar CHIR99021 + 10 micromolar Y-27632, then 8 days 1 micromolar retinoic acid derivative
Experimental: as §1, §2
Subsequently, the iPS cells were suspended in a DMEM/F12 medium containing Glutamax, 2% FBS, and PenStrep, and 10 micromolar Y-27632 and 3 micromolar CHIR99021 were added thereto. Subsequently, the cell suspension was transferred to a dish coated with 0.1% gelatin, and culture was conducted for 2 days. […]
After the cell culture had been conducted for 8 days, the cells were analyzed by flow cytometry (FACS) using OSR1 expression as an indicator.

[6] = system: OSR1-GFP reporter iPS cells; assay: Suspention culture of OSR1 (GFP) positive cells to form sphere, immunostaining; type: cell-based, human; conditions: novel induction method 3 with 1 micromolar TTNPB, then suspention culture on low cell adhesion plate
Experimental: (§3) The above OSR1-GFP reporter iPS cells were dispersed into single cells in a manner similar to Example 2. Subsequently, the iPS cells were suspended in a DMEM/F12 medium containing Glutamax, 2% FBS, and PenStrep, and a combination of 10 micromolar Y-27632, 3 micromolar CHIR99021, and 1 micromolar TTNPB was added thereto. Subsequently, the cell suspension was transferred to a dish coated with 0.1% gelatin, and culture was conducted for 2 days. Thereafter, the medium was removed, the culture product was washed in PBS, and the iPS cells were then cultured for an additional 3 days (novel induction method 3) in a medium prepared by adding 1 micromolar TTNPB to a DMEM/F12 medium containing 2-mercaptoethanol, Glutamax, 10% KOCKOUT SR, 0.1 mM MEM NEAA, and PenStrep. After isolating GFP positive cells from obtained cells with flow cytometer, 1×10^5 GFP positive cells were transferred to a low cell adhesion plate (PrimeSurface, Sumitomo Bakelite co.), and cultured in DMEM/F12 medium containing 10 micromolar Y-27632, 2-mercaptoethanol, Glutamax, 10% KOCKOUT SR, 0.1 mM MEM NEAA, and PenStrep in suspention to form cell sphere. During culture, the medium was exchanged with fresh medium once every 3 days.
Obtained cells were analyzed with immunostaining (FIG. 8).

[7] = system: OSR1-GFP reporter iPS cells; assay: Organ culture of OSR1 (GFP) positive cells with mouse metanephric cells, immunostaining; type: cell-based, human; conditions: novel induction method 3 with 1 micromolar TTNPB, then mixed with E11.5 mouse metanephric cells, 7 days floating culture
Experimental: The above OSR1-GFP reporter iPS cells were dissociated into single cells in a manner similar to Example 2. Subsequently, the iPS cells were suspended in a DMEM/F12 medium containing Glutamax, 2% FBS, and PenStrep, and a combination of 10 micromolar Y-27632, 3 micromolar CHIR99021, and 1 micromolar TTNPB was added thereto. Subsequently, the cell suspension was transferred to a dish coated with 0.1% gelatin, and culture was conducted for 2 days. Thereafter, the medium was removed, the culture product was washed in PBS, and the iPS cells were then cultured for an additional 3 days (novel induction method 3) in a medium prepared by adding 1 micromolar TTNPB to a DMEM/F12 medium containing 2-mercaptoethanol, Glutamax, 10% KOCKOUT SR, 0.1 mM MEM NEAA, and PenStrep. After isolating GFP positive cells from obtained cells with flow cytometer, 1×10^4 GFP positive cells were mixed with 1×10^5 mouse metanephric cells obtained from E11.5 mouse embryo on a low cell adhesion plate (PrimeSurface). The next day, cell sphere was transferred on the Isopore™ Membrane Filters (Merck Millipore) floated on Improve MEM medium containing 10 micromolar Y-27632, 10% FBS and PenStrep. During culture, the medium was exchanged with fresh medium once every 3 days. Obtained cells were analyzed with immunostaining at 7 days after floating culture (FIG. 9).

[8] = system: OSR1-GFP reporter iPS cells; assay: Long term culture of OSR1 (GFP) positive cells, RT-PCR and immunostaining; type: cell-based, human; conditions: novel induction method 3 with 1 micromolar TTNPB, then 8 days with 100 ng/ml BMP7, 100 ng/ml Wnt3a on Matrigel
Experimental: as §3, with “cells were dissociated into single” for “cells were dispersed into single”, “flow cytometer, the GFP positive” for “flow cytometer, 1×10^5 GFP positive”, “to a dish coated with Matrigel (BD), and cultured” for “to a low cell adhesion plate (PrimeSurface, Sumitomo Bakelite co.), and cultured”, “micromolar Y-27632, 100 ng/ml BMP7, 100 ng/ml Wnt3a, 2-mercaptoethanol, Glutamax,” for “micromolar Y-27632, 2-mercaptoethanol, Glutamax,”, “and PenStrep for 8 days. During culture,” for “and PenStrep in suspention to form cell sphere. During culture,”, “3 days. Obtained cells were analyzed with RT-PCR (FIG. 7A) and immunostaining (FIG. 7B). […]” for “3 days.”

[9] = novel induction method 2: 2 days 3 micromolar CHIR99021 + 10 micromolar Y-27632 + 1 micromolar retinoic acid derivative, then 8 days 1 micromolar retinoic acid derivative
[10] = novel induction method 3: 2 days 3 micromolar CHIR99021 + 10 micromolar Y-27632 + 1 micromolar retinoic acid derivative, then 3 days 1 micromolar retinoic acid derivative

Row | SMILES | time at which growth of OSR1 positive cells had plateau after the medium change [1] [days] | induction of OSR1-positive cells (FACS) [1, 9] | induction of OSR1-positive cells (FACS) [1, 10] | differentiation of further iPS and ES cell clones into intermediate mesoderm cells [2] | cytotoxicity relative to ATRA [3] | activity relative to all-trans retinoic acid (ATRA) [4] | induction of OSR1-positive cells (FACS) [5] | luminal structure formation from OSR1 positive cells by forming sphere [6] | luminal structure formation from OSR1 positive cells by mixed culture with organ [7] | further differentiation of obtained OSR1 positive cells [8]
1 | CC1(C)CCC(C)(C)c2cc(C(=O)Nc3ccc(C(=O)O)cc3)ccc21 [AM580, 4-[[(5,6,7,8-tetrahydro-5,5,8,8-tetramethyl-2-naphthalenyl)carbonyl]amino]-benzoic acid] | 8 | OSR1-positive cells were successfully induced | OSR1-positive cells were successfully induced | could be differentiated into intermediate mesoderm cells | lower cytotoxicity compared with ATRA | higher than that of all-trans retinoic acid (ATRA) | OSR1-positive cells were successfully induced | – | – | –
2 | C/C(=C\c1ccc(C(=O)O)cc1)c1ccc2c(c1)C(C)(C)CCC2(C)C [TTNPB, 4-[(1E)-2-(5,6,7,8-tetrahydro-5,5,8,8-tetramethyl-2-naphthalenyl)-1-propen-1-yl]-benzoic acid] | 8 | OSR1-positive cells were successfully induced | OSR1-positive cells were successfully induced | could be differentiated into intermediate mesoderm cells | lower cytotoxicity compared with ATRA | higher than that of all-trans retinoic acid (ATRA) | OSR1-positive cells were successfully induced | luminal structure could be constructed | luminal structure could be constructed | could be further differentiated into renal precursor cells
